Results on one compound are retold here after article PMC6267684, “Pharmacokinetic evaluation of the PNC disassembler metarrestin in wild-type and Pdx1-Cre;LSL-Kras^G12D/+;Tp53^R172H/+ (KPC) mice, a genetically engineered model of pancreatic cancer” (Cancer Chemotherapy and Pharmacology, 2018).

By IC50 is commonly meant the concentration that gives 50% inhibition. Low readings indicate greater potency, high ones weaker potency.

This assay has as its system PNC in PC3M cells. The assay can be described thus: PNC disassembly assay in PC3M cells. The format is cell-based. To be noted: PC3M (PTB-GFP) cells. Here is the method:
The PNC disassembly assay has been previously described. […] Cells were fixed with […] for 10 min at room temperature. […] Confocal images were obtained using Opera Phoenix (PerkinElmer, Waltham, MA) and a 20× objective lens.
To examine whether measured intratumor metarrestin concentrations measured in PK studies track with intracellular metarrestin concentration, we first decided to synthesize a fluorophore conjugated analog of metarrestin. Structure activity relationship studies around the structure of metarrestin were conducted in a high throughput assay that measured in dose dependence the ability of compounds to reducing PNC prevalence in PC3M cells. […] This analog was chemically conjugated to the fluorophore boron-dipyrromethene (BODIPY®) to track the disassembly of the PNC in PC3M cancer cells by confocal microscopy (Suppl. Figure 2). […] Next, to examine cellular metarrestin levels in relation to extracellular concentrations, we exposed KPC and PC3M cells at 1 and 10 µM concentrations of metarrestin and harvested cells at different timepoints.

`N=c1c2c(-c3ccccc3)c(-c3ccccc3)n(Cc3ccccc3)c2ncn1C1CCOCC1` [NCGC00244845] showed a half-inhibitory concentration (IC50) of 0.089 µM.
